“Also recorded” adds a separate entry of the source.
Columns and labels:
human prolactinoma cells = assay: Realtime PCR of PRL in primary human prolactinoma cell cultures; type: cell-based; conditions: for suppression of PRL mRNA levels: 24 hr
Protocol: A, B, D, and E. After trans-sphenoidal surgery of human prolactinomas, tumor cells were cultured. […] PRL levels in culture media were measured using RIA (B). H&E and PRL staining of tumor and confocal immunocytochemistry of EGFR and HER2 (Tumor A) (C), or for Tumor B (F). Magnification of these figures was 100×. […] PRL levels in culture media were measured using RIA (E). Prolactinoma cells (Tumor B) were treated with U0126 (0.1-5 μM) for 24 hr, and Realtime PCR of PRL performed (G).
Total RNA was extracted with Trizol reagent (Invitrogen) according to instructions of the manufacturer. The amount and the integrity of RNA were assessed by measurement of absorbance at 260 and 280 nm. Total RNA was reverse-transcribed into first-strand cDNA using iScript cDNA synthesis kit (Bio-Rad Laboratories, Inc.) according to the manufacturer. Quantitative PCR reactions were carried out in the iQ5 Multicolor Real-time PCR Detection System (Bio-Rad Laboratories, Inc.) as described (8). Certified RT^2 primer assays for rat GH, PRL and human PRL were purchased from SuperArray. Primer sequences (Invitrogen) were 5′-[…]-3′ (18S rRNA forward (F)), 5′-[…]-3′ (18S rRNA reverse (R)), 5′-[…]-3′ (human (3-actin F), 5′-[…]-3′ (human (3-actin R), 5′-[…]-3′ (human GAPDH F), 5′-[…]-3′ (human GAPDH R).
Human prolactinoma tissues were obtained at the time of surgery (Pituitary Center, Cedars-Sinai Medical Center) and transferred in 0.3% BSA containing DMEM according to an IRB-approved protocol. After washing with medium, tumor tissues were chopped with a sterile scalpel into approximately 1-2 mm pieces. Tissues were rinsed and digested with DMEM containing 0.3% BSA, 0.35% collagenase, and 0.15% hyaluronidase at 37° C. for 30 min The mixture was centrifuged at 1,500 rpm for 5 min at 4° C., and the cell pellet resuspended in an appropriate volume of culture medium containing 10% FBS and antibiotics in 48 well plates. After 24 hr incubation with serum depleted starvation medium (DMEM with 0.3% BSA), treatment agents were added with fresh serum-depleted medium (0.3% BSA), and medium collected for RIA. RNA was extracted after 24 hr treatment. Medium was also collected at baseline. To normalize for cell number effect, the PRL value of treated medium was divided by that of pre-treatment starvation medium to obtain a treated value for each well (n=4).

[1] = tested on: GH3 cells stably expressing HER2CA; assay: Western blotting of cleaved caspase-3 (apoptosis); conditions: 0.1-10 μM, 24 hr
[2] = tested on: GH3 cells stably expressing HER2CA; assay: Realtime PCR of PRL and GH mRNA in GH3 stable transfectants; type: cell-based, rat; conditions: for suppression of PRL expression: Her2CA-GH3 cells
Protocol: A. […] C. GH and PRL secretion in the culture medium determined by RIA. Hormone secretion levels were normalized for cell numbers, Values are mean±SEM. *p<0.05, **p<0.01. […] GH3 rat lacto-somatotroph tumor cells secreting PRL and GH were purchased from the American Type Culture Collection. HER2CA cells were generated by transfection with […]) purchased from Addgene (Addgene plasmid 16259). Stable colonies were selected in the presence of 500 μg/ml G418 (Invitrogen). A vector control cell line pcDNA3 was simultaneously established by transfecting pcDNA3 that lacked inserted cDNA. […] After synchronization by serum starvation (medium containing 0.2% bovine serum albumin for 24 h), cells with treatment agents was grown in fresh serum-depleted medium (0.2% bovine serum albumin), and samples collected at the indicated times. Total RNA was extracted with Trizol reagent (Invitrogen) according to instructions of the manufacturer. The amount and the integrity of RNA were assessed by measurement of absorbance at 260 and 280 nm. Total RNA was reverse-transcribed into first-strand cDNA using iScript cDNA synthesis kit (Bio-Rad Laboratories, Inc.) according to the manufacturer. Quantitative PCR reactions were carried out in the iQ5 Multicolor Real-time PCR Detection System (Bio-Rad Laboratories, Inc.) as described (8). […] Primer sequences (Invitrogen) were [NT] rRNA forward ([…] rRNA reverse ([NT] (human (3-actin [NT] (human (3-actin […]).

[3] = tested on: GH3 cells stably expressing HER2CA; assay: Cell proliferation assay (cell counts); type: cell-based, rat; conditions: for cell number: HER2CA GH3 cells, 0.1-10 μM, 24 h treatment
Protocol: pcDNA3 and HER2CA cells were plated at a density of 2×10^4 per well in 12-well plates or 4×10^3 cells per well in 96-well plates with growth medium. For 12-well plates, cells were counted by hemocytometer at the indicated times. For 96-well plates, premixed WST-1 cell proliferation reagent (Roche Molecular Biochemicals) was added (1:10) at the indicated times and incubated for 4 h at 37° C. in a humidified atmosphere maintained at 5% CO2, and absorbance was then measured at 450 nm. WST-1 is a colorimetric assay for quantification of cell proliferation and cell viability, based on the cleavage of the tetrazolium salt by mitochondrial dehydrogenases in viable cells.

[4] = tested on: GH3 cells stably expressing HER2CA; assay: RIA of PRL and GH secretion in culture medium of GH3 stable transfectants; type: cell-based, rat; conditions: HER2CA GH3 cells, 1 μM
Protocol: μM) for the indicated times, and Realtime PCR analysis performed. C. GH and PRL secretion in the culture medium determined by RIA. Hormone secretion levels were normalized for cell numbers, Values are mean±SEM. *p<0.05, **p<0.01.
GH3 rat lacto-somatotroph tumor cells secreting PRL and GH were purchased from the American Type Culture Collection. HER2CA cells were generated by transfection with pcDNA3-HER2CA (V654E) purchased from Addgene (Addgene plasmid 16259). Stable colonies were selected in the presence of 500 μg/ml G418 (Invitrogen). A vector control cell line pcDNA3 was simultaneously established by transfecting pcDNA3 that lacked inserted cDNA. After selection and propagation of stable transfectants, cells were cultured in DMEM/F12 medium containing 15% horse serum, 2.5% FBS, penicillin/streptomycin, and 500 μg/m G418. After synchronization by serum starvation (medium containing 0.2% bovine serum albumin for ˜24 h), cells with treatment agents was grown in fresh serum-depleted medium (0.2% bovine serum albumin), and samples collected at the indicated times.
RIAs for rat GH and PRL were performed in duplicate, using reagents provided by the National Hormone and Pituitary Program, National Institute of Diabetes and Digestive and Kidney Diseases (Harbor-UCLA Medical Center, Torrance, Calif., USA). Iodination of GH and PRL (5 μg) with iodine-125 (500 μCi) (PerkinElmer life & Analytical Sciences, Boston, Mass., USA) mixed with 0.1 mg Iodo-Gen (Pierce, Rockford, Ill.) was performed using 10-ml columns prepared by G-75 Sephadex (Sigma Chemical Co.). Low interspecies cross-reactivity of the GH and PRL assays were previously shown (8).

[5] = Tumor A, lapatinib 0.1-10 μM or gefitinib 10 μM

Compound	suppression of PRL mRNA levels (human prolactinoma cells; [5])	suppression of PRL mRNA levels (human prolactinoma cells; Tumor B, 0.01-10 μM) [%]	suppression of human PRL mRNA expression (human prolactinoma cells; human primary prolactinoma tumor cell cultures, tumor not named) [%]	induction of cleaved caspase-3 [1]	PRL mRNA levels ([2]; HER2CA GH3 cells, 1 μM)	suppression of PRL expression [2] [%]	cell number [3]	suppression of cell number, HER2 overexpressing vs pcDNA3 transfectants ([3]; pcDNA3 and HER2CA transfectants compared)	suppression of PRL secretion ([4]; 24 h) [%]	suppression of PRL secretion ([4]; 48 h) [%]	PRL secretion, time course of suppression ([4]; 24 and 48 h)
CS(=O)(=O)CCNCc1ccc(-c2ccc3ncnc(Nc4ccc(OCc5cccc(F)c5)c(Cl)c4)c3c2)o1 [lapatinib, Lapatinib]	~90%	~45	~80	dose-dependently induced cleaved caspase3; also recorded: induced cleaved-caspase 3	more marked suppression	~70	decreased in a dose-dependent manner	enhanced in HER2 overexpressing transfectants	40	40	
COc1cc2ncnc(Nc3ccc(F)c(Cl)c3)c2cc1OCCCN1CCOCC1 [gefitinib]	no effect	~45		dose-dependently induced cleaved caspase3		~50	decreased in a dose-dependent manner				suppressed PRL secretion only at 24 h
